According to US6083941A, “Inhibition of NMDA receptor activity by pregnenolone sulfate derivatives” (Trustees of Boston University, priority 1998, dated 2000):
Where “and” joins values, the source holds several entries; their conditions need not be identical. Identical values can stand only once. Counter-ions that a name gives are not always drawn. Like-named read-outs stand apart in the source and are kept apart here.

How the values were obtained:
Assay type in all cases: cell-based
[1] = tested on: NMDA receptor; test: Whole cell patch clamp, NMDA-induced current in cultured chick spinal cord neurons; details: for mean NMDA induced current: control cultures 121±16 pA
Experimental: Cultures of dissociated spinal cord neurons were prepared as previously described (Farb, D. H., et al., J. Cell Biol., 80:651-661 (1979)). Briefly, the dissociated cells from 7-day chick embryos were plated on collagen-coated 35-mm tissue culture dishes in Eagle's minimum essential medium supplemented with 2.4 mM glutamine, 10% (v/v) heat-inactivated horse serum, 5% (v/v) chick embryo extract and antibiotics. Cultures were maintained in a humidified atmosphere of 5% CO2, 95% air at 37°. Cytarabine (1 μM) was added to the culture medium after 36 hr. of the initial plating to inhibit the proliferation of non-neuronal cells. One day later, this medium was replaced with a similar medium supplemented with 20.5 mM glucose, 19 mM KCl, and 2.5% chick embryo extract. Fresh medium was added twice weekly. Cultured neurons were used in experiments within 2-4 weeks after plating.
Experiments were carried out in 35-mm tissue culture dishes on the stage of an inverted phase contrast microscope. Whole cell currents were recorded by the whole cell variant of the patch clamp technique (Hamill, O. P., et al., Pfagers Arch. 891:85-100 (1981)). Patch electrodes had tip openings of about […] and resistances of 3-8 M.OMEGA. using an intracellular solution comprised of the following (in mM): 140 CsCl, 11 EGTA, and 10 HEPES (pH adjusted to 7.2 with CsOH). In experiments in which a high concentration of glycine was used, the intracellular solution was replaced with a low chloride (10 mM) pipette solution. This solution contained the following (in mM): 140 potassium gluconate, 10 KCl, 8 sodium gluconate, 11 EGTA, and 10 HEPES (pH adjusted to 7.2 with KOH). To prevent a marked run-down of NMDA-induced current at high NMDA concentrations, 4 mM potassium ATP was included in the intracellular solution. The bath solution contained the following (in mM): 150 NaCl, 4 KCl, 1 CaCl2, and 10 HEPES (pH adjusted to 7.2 with NaOH). No glycine was added to the solutions containing NMDA, because no additional glycine was required to obtain a robust NMDA response, and there was no effect of a maximal concentration (10 μM) of glycine on 5β3αS inhibition of the NMDA response. All experiments were performed at room temperature (23-25° C.).
Recordings were made using an Axopatch 1B patch clamp apparatus (Axon Instruments, Burlingame, Calif.). Cells with series resistances greater than 10 M.OMEGA. were rejected. After partial compensation, series resistances were between 3.5 and 6 M.OMEGA.. The holding potential was maintained at -70 mV unless otherwise noted. Currents were filtered at 1 kHz using an eight-pole Bessel filter (-3 dB) and digitized ([…]) using an on-line data acquisition system (pClamp, Axon Instruments).
Drug solutions were applied to single neurons by pressure ejection (15 psi) from seven-barrel pipettes. Seven-barrel pressure pipettes were positioned approximately […] from the neuronal soma. Under these conditions, the drug solution in the pressure pipette rapidly and effectively replaces the solution surrounding the target neurons with less than 10% dilution (Choi, D. W., et al., Nature (Lond.) 269:342-344 (1977); Chan, C. Y., et al., Life Sci., 83:2061-2069 (1983); Chan, C. Y. and Farb, D. H., J. Neurosci., 5:2365-2373 (1985)). All drugs were obtained from Sigma, with the except of AMPA hydrobromide (Research Biochemicals) and steroids (Steraloids). Stock solutions of steroids were prepared in dimethyl sulfoxide, the final concentration of which was 0.5% (v/v). To obviate the possible effects of dimethyl sulfoxide on the relevant agonist-induced currents, all other drug solutions including NMDA, kainate, AMPA and external buffer (in the pressure pipette) also contained 0.5% dimethyl sulfoxide. […]

[2] = tested on: glutamate receptor-mediated spontaneous EPSCs in rat hippocampal neurons; test: Spontaneous excitatory postsynaptic currents (EPSCs), whole-cell recording in cultured hippocampal neurons
Experimental: Primary cultures of hippocampal neurons were prepared from embryonic day 18 rats. Cultured neurons were used in experiments 2-3 weeks after plating.
Spontaneous excitatory postsynaptic currents were recorded by the whole-cell variant of the patch clamp technique. The pipet solution usually contained (in mM) KCl 10, EGTA 11, sodium gluconate 3, potassium gluconate 140 and HEPES 10, adjusted to pH 7.2 with KOH. The bath solution contained (in mM) NaCl 150, KCl 4, CaCl2 1, and HEPES 10, adjusted to pH 7.2 with NaOH. Because NMDA-induced currents are subject to voltage-dependent block by extracellular Mg^2+, no magnesium salts were added to the bath solution. All records were made with the cell membrane potential clamped at -70 mV, which is very close to the Cl- equilibrium potential. Therefore, IPSCs are not expected to be observed and spontaneous activity should consist of EPSCs. The complete blockage of spontaneous activity by the co-application of the NMDA receptor antagonist APV and the non-NMDA receptor antagonist DNQX argues that the observed spontaneous activity is glutamate receptor-mediated.
Drug solutions were applied to single neurons by pressure ejection (15 psi) from 7-barrel pipets (tip opening ~3-5 μm) positioned ~50 μm from the neuronal soma. In all experiments, neurons received a 40s application of either steroid or steroid plus antagonist(s), followed by 10-20s pulse of external buffer solution.

[3] = tested on: NMDA-induced cell death in primary neuronal cultures of rat hippocampal formation; test: Trypan blue exclusion, NMDA-induced cell death (excitotoxicity) in primary hippocampal cultures; details: Rattus norvegicus, 200 μM 17β-estradiol hemisuccinate
Text: Trypan blue exclusion was used to evaluate the ability of derivatives of pregnenolone sulfate to inhibit NMDA-induced cell death in primary neuronal cultures of rat hippocampal formation.
Mixed neuronal and glial cultures of hippocampal tissue were derived from fetal rats on day 18 of embryonic development and were maintained in culture for 16 to 24 days (Brewer, G. J., Brain Res., 494: 65-74 (1989)). Care for the animals used in this study was in accordance with institutional guidelines. Hippocampal tissue from Sprague-Dawley rat pups was collected immediately following removal from dams sacrificed with CO2 on embryonic day 18. Cells were dissociated by trituration in Ca^2 +/Mg^2 + free Hank's basic salt solution supplemented with 4.2 mM bicarbonate, 1 mM sodium pyruvate, 20 mM HEPES, 3 mg/ml BSA, and pelleted by centrifugation (900 rpm, 3 min). The resulting pellet was suspended in DMEM supplemented with 2.4 mg/ml BSA, 26.5 mM sodium bicarbonate, 1 mM sodium pyruvate, 20 mM HEPES, 10% FBS, 100 units/ml penicillin, 100 μg/ml streptomycin, and a modification of Brewers B16 defined components (with […] vitamin B12 and without catalase, glutathione, and superoxide dismutase) (Pike, C. J., et al., Neurosci. 13:1676-87 (1993)) and plated onto poly-L-lysine coated 24 well culture dishes (Nunclon) at a density of 15,000 cells/cm^2 and were maintained in a humidified incubator in 5% CO2 /95% air at 37° C. After 5 days in vitro, nonneuronal cell division was inhibited by exposure to 2×10^-6 M cytosine arabinoside for 48 hrs. Cells were subsequently maintained in medium identical to that used for platting without BSA or FBS.
The number of living neurons was determined by assessing the ability of cells to exclude trypan blue 16 hrs. after the addition of drug solutions to the medium of individual culture wells (Dawson, V. L., et al., Proc. Natl. Acad. Sci. USA, 88:6368-6371 (1991)). Drugs were introduced to cultures in 100 μl of conditioned media, collected from experimental cultures just prior to treatment, to a final volume of 0.5 ml. NMDA was dissolved in DMEM at concentrations of 0-5 mM so that addition of 10 μl yielded final concentrations of 0-100 μM. MK-801, a positive control, was dissolved in DMEM at a concentration of 1 mM so that addition of 5 μl yielded a final concentration of 10 μM. Control cultures were exposed only to an equivalent volume of DMEM, and concentration of DMSO (0.5%). The concentrations of the pregnenolone sulfate derivatives were as follows: 10-100 μM 5β3αS, 100 μM 5β3α hemisuccinate and 200 μM 17β-estradiol hemisuccinate.
After exposure to drugs, the medium was replaced by 0.1 M sodium phosphate buffer/0.4% trypan blue. Cell death was assessed by counting the number of trypan blue positive and negative neurons in five high power fields per culture well with an inverted phase contrast microscope using both bright field and phase settings. Cell death is expressed as the ratio of the number of trypan blue positive to total number of cells counted in each well×100 (percent cell death).

[4] = molecular target: T1, recombinant NMDA receptors (NR1100 and NR2A subunits) (Rattus norvegicus, UniProt P35439+Q00959); test: Two electrode voltage-clamp of Xenopus oocytes expressing recombinant NMDA receptors
T1 construct: expressed in transfected cells; host or cells: Xenopus laevis oocytes injected with in vitro transcribed mRNA
T1 sequence (Q00959 23-1464, other chains not shown): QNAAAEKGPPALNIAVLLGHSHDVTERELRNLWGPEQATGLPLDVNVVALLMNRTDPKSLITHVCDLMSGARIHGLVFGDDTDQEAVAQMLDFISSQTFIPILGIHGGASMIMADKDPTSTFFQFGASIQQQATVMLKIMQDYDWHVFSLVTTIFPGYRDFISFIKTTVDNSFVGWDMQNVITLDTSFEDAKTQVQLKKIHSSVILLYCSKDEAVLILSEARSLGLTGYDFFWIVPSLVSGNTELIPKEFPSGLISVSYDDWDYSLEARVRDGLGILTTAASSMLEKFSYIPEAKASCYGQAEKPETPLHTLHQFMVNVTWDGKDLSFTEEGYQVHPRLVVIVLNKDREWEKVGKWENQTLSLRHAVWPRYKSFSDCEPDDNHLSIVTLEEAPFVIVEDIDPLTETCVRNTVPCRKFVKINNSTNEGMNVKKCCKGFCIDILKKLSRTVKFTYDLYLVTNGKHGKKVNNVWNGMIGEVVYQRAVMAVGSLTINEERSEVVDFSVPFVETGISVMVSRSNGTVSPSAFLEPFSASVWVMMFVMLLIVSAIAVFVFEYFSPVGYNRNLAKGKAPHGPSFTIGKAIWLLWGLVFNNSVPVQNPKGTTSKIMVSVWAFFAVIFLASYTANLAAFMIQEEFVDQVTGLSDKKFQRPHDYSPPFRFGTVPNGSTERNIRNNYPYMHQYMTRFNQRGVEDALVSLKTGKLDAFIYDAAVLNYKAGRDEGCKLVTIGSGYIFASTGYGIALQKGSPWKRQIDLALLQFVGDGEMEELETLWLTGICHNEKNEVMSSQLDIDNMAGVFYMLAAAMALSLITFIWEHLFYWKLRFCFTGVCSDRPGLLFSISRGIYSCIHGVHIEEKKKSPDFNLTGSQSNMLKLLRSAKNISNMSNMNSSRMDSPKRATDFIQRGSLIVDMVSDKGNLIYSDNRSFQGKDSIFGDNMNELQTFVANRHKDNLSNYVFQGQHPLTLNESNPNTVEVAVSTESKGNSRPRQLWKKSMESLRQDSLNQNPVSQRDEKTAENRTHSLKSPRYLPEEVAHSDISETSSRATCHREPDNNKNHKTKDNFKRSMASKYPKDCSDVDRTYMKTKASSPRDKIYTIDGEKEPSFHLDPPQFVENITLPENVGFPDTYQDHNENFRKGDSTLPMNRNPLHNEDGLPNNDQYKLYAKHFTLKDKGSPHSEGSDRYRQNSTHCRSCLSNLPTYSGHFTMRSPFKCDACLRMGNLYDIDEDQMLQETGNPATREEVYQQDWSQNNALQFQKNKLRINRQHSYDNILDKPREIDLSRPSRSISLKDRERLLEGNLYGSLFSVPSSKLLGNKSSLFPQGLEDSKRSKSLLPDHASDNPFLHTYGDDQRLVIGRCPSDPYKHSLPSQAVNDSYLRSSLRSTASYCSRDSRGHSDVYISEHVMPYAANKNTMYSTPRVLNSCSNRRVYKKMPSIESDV
Experimental: RNA preparation. mRNA were prepared through in vitro transcription of NR1100 and NR2A cDNAs using the mMessage mMachine kit (Ambion, Tex.). NR1100 and NR2A clones were kindly provided by Dr. Zukin and Dr. Nakanishie.
Xenopus expression system. Female, oocyte positive Xenopus laevis frogs were purchased from Nasco, Inc. (WI). The frogs were kept on a 12/12 light-dark cycle and maintained on a diet of chopped calf liver every 3 days. Prior to surgery, frogs were anesthetized in a 0.15% Tricaine solution (Sigma, Mo.) for 30-45 minutes. Ovarian sections containing the follicular oocytes were removed through a lateral abdominal incision and were immediately placed in calcium-free ND96 solution (in mM):96 NaCl; 1 MgCl2; 2 KCl; 5 Hepes; 2.5 pyruvate (pH adjusted to 7.4 with NaOH). Following a 2 hr. incubation in 0.2% collagenase type II (Sigma, Mo.) at room temperature, individual defolliculated oocytes were transferred into 60×15 mm glass petri dishes containing ND96 solution (in mM): 96 NaCl; 1 MgCl2; 2 KCl; 1.8 CaCl2; 5 Hepes; 2.5 pyruvate (pH adjusted to 7.4 with NaOH). The isolated oocytes were maintained in an incubator at 18° C. On the following date, batches of 20-40 selected oocytes (Dumont stage V and VI) were injected with 50 nl of prepared RNA solution (0.5 ng of NR1 and 12 ng of NR2A mRNAs per oocyte) using an electronic microinjector (Drummond, Pa.). The injected oocytes were used for electrophysiological experiments following 4-10 day incubation at 18° C.
Electrical recording and drug application. The ion current recordings were obtained in two electrodes voltage-clamp mode using an Axoclamp-2A amplifier (Axon Instruments, Inc., CA). The microelectrodes were fabricated with a programmed puller (Sutter Instrument Co., CA) from glass capillaries (Dagan, Minn.) and filled with 3M KCl solution. The resistance of filled microelectrodes was in the range of 2.5-3.5 M.OMEGA.. The oocytes were clamped at a holding potential of -70 mV. The membrane current was filtered at 500 Hz and sampled at 100 Hz frequency. The drugs were applied using a gravity driven external perfusion system. The data acquisition and external perfusion control were done using SuperScopeII software package (GW Instruments, MA). All experiments were performed at room temperature of 22-24° C.
The degree of modulation of the amino acid response by steroids, the percent change, was defined at (I'/I-1)×100%, where I and I' are respectively the agonist-induced currents in the absence and presence of steroid. Throughout, results are expressed as mean±SEM; statistical comparison of groups was carried out using Student's t test.

## O[C@H](CS)[C@H](O)CS (racemic) [DTT, dithiothreitol, reference compound]
[1]; 4 mM DTT, after 180 seconds of exposure
  NMDA current, % of control: 273±19%
[1]; after approximately an hour of exposure to 4 mM DTT
  mean NMDA induced current: 326±82 pA

## CC(=O)[C@H]1CC[C@H]2[C@@H]3CC[C@H]4C[C@@H](OS(=O)(=O)O)CC[C@]4(C)[C@H]3CC[C@]12C [5α3βS, 5α-pregnan-3β-ol-20-one sulfate, reference compound]
[1]; steroid concentration not given
  inhibition of the NMDA-induced current: 1±2.6%

## CC(=O)[C@H]1CC[C@H]2[C@@H]3CC=C4C[C@@H](OS(=O)(=O)O)CC[C@]4(C)[C@H]3C(=O)C[C@]12C [11-keto PS]
[2]; Rattus norvegicus, Hippocampal neuron, 100 μM steroid, read-out: percentage potentiation of EPSCs
  activation at 100 µM: 19 ± 15%
[2]; cultures of rat hippocampal neurons
  effect on spontaneous EPSCs: has no effect on EPSCs

## C[C@]12CC[C@@H]3c4ccc(OC(=O)CCC(=O)O)cc4CC[C@H]3[C@@H]1CC[C@@H]2O [17β-estradiol hemisuccinate]
[3]; read-out: inhibition of the cell death induced by chronic NMDA
  inhibition at 200 µM: 40%
[3]; read-out: inhibition of the cell death produced by short term exposure to NMDA
  inhibition at 200 µM: 65%

## C[C@]12CC[C@H](OS(=O)(=O)O)CC1=CC[C@@H]1[C@@H]2CC[C@]2(C)C(=O)CC[C@@H]12 [DHEAS, Dehydroepiandrosterone sulfate, reference compound]
[1]; concentration not in the sentence (100 μM in Table 1)
  potentiation of the NMDA response: 28.8±8.8% and 28.8%

## CCN1C(=O)C=CC1=O [NEM, N-ethylmaleimide, reference compound]
[1]; 5 min 4 mM DTT, then 2 min 4 mM DTT plus 300 μM NEM
  mean NMDA induced current: 367±82 pA

## CN[C@H](CC(=O)O)C(=O)O [NMDA, N-methyl-D-aspartate]
[4]
  EC50: 62 ± 4 µM
[1]; in the absence of 5β3αS
  NMDA nH: 1.01
[1]; in the absence of 5β3αS, normalized to the peak current induced by 100 μM NMDA
  NMDA Imax: 2.56
[1]; read-out: NMDA EC50, in the absence of 5β3αS
  EC50: 156 µM

## CCCCC/C=C\C/C=C\C/C=C\C/C=C\CCCC(=O)O [arachidonic acid, reference compound]
[1]; 10 μM arachidonic acid alone
  potentiation of the 30 μM NMDA response: 120±35%
[1]; 10 μM arachidonic acid in the presence of 100 μM PS
  potentiation of the NMDA response: 158±22%

## NCCCNCCCCNCCCN [spermine, reference compound]
[1]; 100 μM spermine (maximal)
  potentiation of the NMDA induced current: 136±33%
[1]; 250 μM spermine
  potentiation of the NMDA induced current: 67±21%
